The LD50 is the dose at which mortality reaches 50%.

For one data set, the system named is IMR-32 cell line. Description: SRB growth assay on IMR-32 neuronal cell line. It counts as cell-based. The settings on record: Homo sapiens, IMR-32, read-out: GI 50 (concentration causing 50% inhibition of cell growth). On the technique in general: The SRB assay estimates cell density from bound dye.
A further data set relates to U373-MG cell line. Description: SRB growth assay on U373 MG glial cell line. It counts as cell-based. As to conditions: Homo sapiens, read-out: GI 50 (concentration causing 50% inhibition of cell growth).
Data set [1] relates to Albino Wistar rats injected with Ibotenic acid. Description: Open field test in ibotenic acid (I.C.V.) model. It counts as in vivo. The settings on record: IBO i.c.v., oral treatment 30 days, FIG. 2b. How it is done:
Ibotenic acid (IBO) is a non-selective glutamate receptor […] which can be used as a powerful neurotoxin to produce anxiety, stress, depression and dementia. It is injected intra cerebro-ventricularly as a brain lesioning agent specially to destroy the neuronal cells in hippocampal and cortical region responsible for fear, anxiety and depression, as well as learning and memory. […] The NMDA subtype of glutamate receptor is an important mediator of synaptic plasticity and plays a central role in the neurobiological mechanisms of emotionality including fear, anxiety and depression, as well as learning and memory (Barkus et al., European Journal of Pharmacology, 2010; 626(1), 49-56).
Ibotenic acid is administered to Albino Wistar rats at the dose of 5 μg/μL/intracerebroventricularly using Hamilton syringe at the rate of 0.1 μL/min. The animals were then treated continuously for 30 days with Black cumin extracts (BCE) orally at various dosages (thymoquinone content) and evaluated for its anxiolytic properties using elevated plus maze and modified open field apparatus. The various black cumin extracts (BCE) dosages evaluated in the study are outlined in Table-3.
The open field test is conventionally designed to assess the state of anxiety, locomotor and exploratory activity. […] Results were statistically analysed by one-way ANOVA followed by Tukey's multiple comparison test.

The test system of the next data set is rats. The settings on record: cited from earlier work.
A further data set has as its system mice. As to conditions: cited from earlier work.
The subject of another data set is rabbits. As to conditions: cited from earlier work.
The conditions of data set [2]: Roghani et al. 2012; cited from earlier work.

Like-named read-outs stand apart in the source and are kept apart here. Where only a bound is given, the exact number is not on record here.

In the case of `COc1cccc2c1C(=O)c1c(O)c3c(c(O)c1C2=O)C[C@@](O)(C(=O)CO)C[C@@H]3O[C@H]1C[C@H](N)[C@H](O)[C@H](C)O1` [Adriamycin], the GI50 in the data set on IMR-32 cell line and in the data set with U373-MG cell line was < 10 µg/mL throughout.
As for `CC12CC3CC(C)(C1)CC(N)(C3)C2` [Memantine], the “Rearing behaviour (rearing frequency), open field” value in data set [1] is “no significant difference between the BCE4 treated group, memantine group and the control group”.
For the compound `CC1=CC(=O)C(C(C)C)=CC1=O` [TQ, 2-isopropyl-5-methyl-1,4-benzoquinone], the LD50 with rats (intra-peritoneal injection) was 57.5 mg/kg; in the data set on rats (oral ingestion) it was 794.3 mg/kg; with mice (intra-peritoneal injection), 104.7 mg/kg; with mice (oral ingestion), 870.9 mg/kg; in the data set with rabbits it was 2400 mg/kg. Moreover, in data set [2], the Memory improvement entry was “memory improvement in a dose dependent manner”.

Values taken from patent publication US11007243B2, “Enzyme-assisted supercritical extraction of nigella sativa seeds” (priority 2016, dated 2021).
